Reference: patent US20240060040A1, “METHODS FOR GENERATING INNER EAR HAIR CELLS” (Ear Science Institute Australia, priority 2020, published 2024)

Tests used:
Assay type in all cases: cell-based
[1] = system: Human iPSCs derived inner ear organoid; assay: ECAD and PAX2 expression by confocal microscopy (ectodermal cell fate); settings: day 20; treated aggregates, compared with Koehler method
Protocol: (§1) FIG. 1 illustrates methods for generating inner ear hair cells from the induced pluripotent stem cells. The inventor added a combination of agents and inhibitors at developmental stages of the inner ear organoid culture to produce the invention. In particular: • (i) ROCK inhibitor (Y-27632) is added to iPSC in suspension culture to promote the formation of three-dimensional embryoid bodies for about 3 days. • (ii) TGF-β inhibitor (SB-431542) is added at low concentration of FGF to drive the development of non-neural ectoderm in days 0 to 3. • (iii) The cultures are then transitioned to medium containing a high concentration of FGF and BMP inhibitor (LDN-193189) during days 4-7, which drives development of the early pre-otic placodal epithelium/pre-placodal ectoderm. • (iv) Next, Wnt agonist (CHIR-99021) is added to stimulate development of otic placode from days 8-11, otic pit formation from days 12-14 and otic prosensory vesicles from days 15-17. • (v) From days 18-32, hedgehog signalling inhibitor (CYC, GANT58 or GANT61) is added to promote the formation of sensory epithelium vesicles, and continued culture under these conditions results in the formation of sensory hair cells with neural innervation from day 33 onwards.
To identify the ectodermal cell fate of inner ear organoids at Day 20-40, the ECAD and PAX2 expression in organoids was observed by using confocal microscopy, comparing organoids developed using (a) Koehler's method without Hh inhibitors, (b) the method of Example 1 with cyclopamine as the SHH inhibitor (Example 2), (c) the method of Example 1 with GANT58 as the SHH inhibitor (Example 3) and (d) the method of Example 1 with GANT61 as the SHH inhibitor (Example 4). […] The ectodermal cell fate of the inner ear organoids developed better with the SHH inhibitors compared with the Koehler method. […] The formation of ectodermal cell appeared to be continuous, beginning on day 7 until approximately day 20-40.

[2] = system: Human iPSCs derived inner ear organoid; assay: MyosinVIIa and Tuj1 immunostaining with confocal imaging (sensory hair cells and nerve innervation); settings: for sensory hair cells and supporting cells in organoids / sensory hair cells and neuronal cells in organoids: day 33-60; for sensory hair cells and supporting cells in organoids: FIG. 14; for sensory hair cells and neuronal cells in organoids: FIG. 17; for inner ear hair cells and nerve innervation detected: inhibitor 1 μM from day 18, removed day 33, 10% Matrigel
Protocol: as §1
On day 18, the SHH inhibitor cyclopamine (CAT 239803 from Merck Millipore) was added to the cell culture to reach a final concentration of 1 μM. Matrigel® was also added to the cell culture to reach a concentration of 10%. The cells were cultured in organoid maturation medium until day 33.
On day 33, the cyclopamine was removed from the medium by washing and the droplet aggregates were remained in the cell culture containing 10% Matrigel®.
The cells were then cultured for up to 200 days in the Organoid Maturation Medium containing 10% Matrigel®. 200 μL of medium was changed daily for each well. The cells were cultured until 60-100 days, until an examination of the cell's morphology determined maturation. The viable, medium size and round 3D shape organoids with inner ear sensory cell gene expression markers were selected for analysis.
Inner ear hair cells and nerve innervation was detected after Day 35. The presence and number of inner ear hair cells was detected by immunostaining and capture with confocal imaging.
(§2) To identify the development of sensory hair cells of inner ear organoids at Day 33-60, the MyosinVIIa and Tuj1 expression in organoids was observed by using confocal microscopy. The results are presented in FIG. 14, which compares organoids developed using (a) the method of Example 1 with cyclopamine (Example 2), and (b) the method of Example 1 with GANT58 (Example 2). […] An opaque outer cell mass is indicative of complete re-organization, which was found in organoids developed using each of the SHH inhibitors. In comparison, less translucent epithelium indicative of incomplete or partial re-organization was found in organoids developed using the Koehler method. Sensory hair cell epithelium through the aggregate surface was found in organoids developed using each SHH inhibitor.
as §2, with “MyoVIIa” for “MyosinVIIa”, “17,” for “14,”, “3) and GANT61 (Example 4).” for “2).”, “inhibitors.” for “inhibitors. In comparison, less translucent epithelium indicative of incomplete or partial re-organization was found in organoids developed using the Koehler method.”

[3] = system: Human iPSCs derived inner ear organoid; assay: SOX2 and Tuj1 expression by confocal microscopy; settings: day 33-60; FIG. 18
Protocol: as §1
To identify the development of sensory hair cells of inner ear organoids at Day 33-60, the SOX2 and Tuj1 expression in organoids was observed by using confocal microscopy. The results are presented in FIG. 18, which compares organoids developed using (a) the method of Example 1 with cyclopamine (Example 2), and (b) the method of Example 1 with GANT58 (Example 3) and GANT61 (Example 4).

[4] = system: Human iPSCs derived inner ear organoid; assay: Single cell RNA sequencing and TaqMan qRT-PCR cell fate analysis; settings: for inner ear hair cell differentiation in comparison with organoids developed using the Koehler method: RNA sequencing and TaqMan qRT-PCR, FIGS. 15 and 16; for hair cell and neuronal markers by single cell RNA sequencing: organoids at Day 60, Koehler method ~57.88%
Protocol: FIG. 1 illustrates methods for generating inner ear hair cells from the induced pluripotent stem cells. The inventor added a combination of agents and inhibitors at developmental stages of the inner ear organoid culture to produce the invention.
To verify the hair cell marker genes in RNAseq transcriptome analysis, quantitative TaqMan® real-time polymerase chain reaction (qRT-PCR) in inner ear organoids was performed to identify the level of hair cell gene expression. FIG. 15 illustrates sensory hair cell-specific gene expression analysis on human iPSCs derived inner ear organoid at Day 60 by single cell RNA sequencing transcriptome analysis. FIG. 16 illustrates otic epithelial-specific gene expression in inner ear organoids at Day 20 and inner ear sensory cell-specific gene expression in inner ear organoids at Day 60 by TaqMan® qRT-PCR analyses. The presence of MyoVI represents inner ear hair cell differentiation.

SMILES | abundance of ECAD/PAX2 positive vesicles with a luminal diameter greater than 50 μm [1] | sensory hair cells and supporting cells in organoids [2] | sensory hair cells and neuronal cells in organoids [2] | inner ear hair cells and nerve innervation detected [2] [days] | supporting cells and neuronal cells in organoids [3] | inner ear hair cell differentiation in comparison with organoids developed using the Koehler method [4] | hair cell and neuronal markers by single cell RNA sequencing [4] [%]
c1cc(-c2sc(-c3ccncc3)c(-c3ccncc3)c2-c2ccncc2)ccn1 [GANT58] | higher abundance | present | present | > 35 | present | greater inner ear hair cell differentiation | ~91.88
CN(C)c1ccccc1CN1CCCN(Cc2ccccc2N(C)C)C1c1ccncc1 [GANT61] | higher abundance |  | present | > 35 | present | greater inner ear hair cell differentiation | 
CC1=C2C[C@H]3[C@@H](CC=C4C[C@@H](O)CC[C@@]43C)[C@@H]2CC[C@]12O[C@@H]1C[C@H](C)CN[C@H]1[C@H]2C [cyclopamine] | higher abundance | present | present | > 35 | present | greater inner ear hair cell differentiation | ~74.48
